Values joined by “and” are separate entries in the source; they are usually repeats but may differ in a detail not shown here. Equal entries are not always repeated. Where two headings read alike, the source gives them in different places.
Legend:
[1] = system: PC-3 cell Akt (Ser473) phosphorylation; experiment: Inhibition of phosphorylation level of PC-3 cell Akt (Ser473), Cisbio HTRF phospho Akt (Ser473) cell-based assay; parameters: species or system human; details: hEGF 100 ng/ml stimulation, 1st and 2nd test where printed
Method: The inhibitory activity of the compounds of present invention to the phosphorylation level of PC-3 cell Akt (Ser473) is studied by using Cisbio HTRF phospho Akt (Ser473) cell-based assay test kit.
Cell strain: PC-3 prostate cancer cells line (cell bank of Chinese Academy of Sciences) is cultured by using culture medium (F12K+10% FBS).
hEGF is prepared as stock solution of 100 ug/ml with 10 mM acetic acid, and the stock solution is diluted to 200 ng/ml with serum-free medium, added 50 ul to each well to be stimulated.
b) Preparation of Complete Lysate • 4×Lysis Buffer is diluted 4 times with ddH2O to prepare 1×Lysis Buffer. • 100×Blocking Reagent is diluted 100 times with 1×Lysis Buffer.
c) Preparation of Detection Liquid • 20×Anti-Phospho-Akt is diluted 20 times with Detection Buffer. • 20×Anti-Akt is diluted 20 times with Detection Buffer.
The compounds are diluted with DMSO, and the working concentration of compounds is 100 times of detection concentration.
Cells in logarithmic growth phase are collected, counted, and resuspended with complete culture medium;
The cell concentration is adjusted to appropriate concentration, and cell suspension is inoculated into 96 well plates at 50 μl per well;
Cells are incubated for more than 4 h in the 5% CO2 incubator at temperature of 37° C., relative humidity of 100%;
Cell plate is removed from the incubator. The cell suspension is aspirated gently, and 50 ul serum-free F12K medium is quickly added, then the cell plate is placed into the incubator to culture overnight.
The compounds are diluted in a linear gradient with DMSO.
0.5 ul compounds is added into the test well, mixed on oscillators, and incubated at room temperature for 2 hours.
Proportioned hEGF solution is added to test well at 50 μl per well, and the final concentration is 100 ng/ml. serum-free medium is added into The negative control well at 50 μl per well.
The solution is mixed on oscillator and incubated at room temperature for 2 hours.
The liquid in 96 well plates is aspirated by multichannel pipette or the supernatant is discarded gently. The proportioned complete lysate is added quickly at 50 μl per well.
The solution is mixed on oscillator and lysed at room temperature for 30 min.
16 μl cell lysate is transferred from the 96 well plates to white low volume 384 well plates, and the proportioned two pairs of detection antibody are added. The solution is mixed on oscillator, and incubated at room temperature for 4 hours to detect the readings.

[2] = system: U87MG human glioblastoma Multiforme cell strain; experiment: Antitumor cell proliferation in vitro, CCK-8 detection kit, U87MG; format: cell-based; details: U-87 MG, 72 h, U-87MG cells, 1st and 2nd test where printed
Method: (§1) The half inhibitory concentration IC50 of proliferation of three kinds of tumor cell strain (U87MG, PC-3, BT474) for 12 candidate compounds of the present invention is detected by CCK-8 detection kits.
U87MG human glioblastoma Multiforme cell strain (cell bank of Chinese Academy of Sciences)
(§2) The studied compounds are dissolved by DMSO to make the final concentration 10 mM.
(§3) • a) Collecting the cells in logarithmic phase, counting, and resuspending the cells with complete medium. • b) Adjusting the concentration of cells to a suitable concentration, inoculating in 96 well plates, each well is inoculated to 100 μl cell suspension.
(§4) c) incubating cells for 24 hours in a 5% CO2 incubator at temperature of 37° C., under the condition of 100% relative humidity.
(§5) a) The cells in logarithmic phase is collected, counted, resuspended with complete medium. The concentration of cells is adjusted to a suitable concentration (determined in accordance with the optimizable test results of cell density), and the cells is inoculated in 96 well plates, wherein each well is inoculated 100 μl cell suspension, Cells are incubated for 24 hours in 5% CO2 incubator at temperature of 37° C. under the condition of 100% relative humidity.
(§6) b) The test compounds are diluted to 500 μM with culture medium, then diluted in series eight times. […] as 25 μl/well. The final concentrations of the compounds are diluted from 100 μM to 0 μM, with 4 times dilution, and there are a total of 10 concentration points.
(§7) c) Cells are incubated for 72 hours in 5% CO2 incubator at temperature of 37° C. under the condition of 100% relative humidity.
(§8) d) The culture medium is aspirated and discarded, and complete medium containing 10% CCK-8 is incubated in a incubator at 37° C. for 2˜4 hours.
(§9) e) After shocking gently, the absorbance of the culture medium is measured at 450 nm wavelength on SpectraMax M5 Microplate Reader, with the absorbance at 650 nm as reference, to calculate the inhibition rate.

[3] = system: BT474 human breast cancer cell strain; experiment: Antitumor cell proliferation in vitro, CCK-8 detection kit, BT474; format: cell-based; details: BT-474 cells, 1st and 2nd test where printed
Method: as §1
BT474 human breast cancer cell strain (cell bank of Chinese Academy of Sciences) Reagents and materials:
as §2, §3, §4, §5, §6, §7, §8, §9

[4] = system: PC-3 human prostate cancer cell strain; experiment: Antitumor cell proliferation in vitro, CCK-8 detection kit, PC-3; format: cell-based; details: PC-3 cells, 1st and 2nd test where printed
Method: as §1
PC-3 human prostate cancer cell strain (cell bank of Chinese Academy of Sciences)
as §2, §3, §4, §5, §6, §7, §8, §9

PI3Kδ = target: T1, PI3Kδ (Homo sapiens, UniProt O00329); experiment: Inhibitory activity to PI3K δ, PI 3-Kinase (human) HTRF Assay kit; format: biochemical; details: for Inhibition rate % to PI3K delta: dihydrate di-methanesulfonate
T1 construct: purchased Millipore 14-604
T1 sequence (O00329 whole entry): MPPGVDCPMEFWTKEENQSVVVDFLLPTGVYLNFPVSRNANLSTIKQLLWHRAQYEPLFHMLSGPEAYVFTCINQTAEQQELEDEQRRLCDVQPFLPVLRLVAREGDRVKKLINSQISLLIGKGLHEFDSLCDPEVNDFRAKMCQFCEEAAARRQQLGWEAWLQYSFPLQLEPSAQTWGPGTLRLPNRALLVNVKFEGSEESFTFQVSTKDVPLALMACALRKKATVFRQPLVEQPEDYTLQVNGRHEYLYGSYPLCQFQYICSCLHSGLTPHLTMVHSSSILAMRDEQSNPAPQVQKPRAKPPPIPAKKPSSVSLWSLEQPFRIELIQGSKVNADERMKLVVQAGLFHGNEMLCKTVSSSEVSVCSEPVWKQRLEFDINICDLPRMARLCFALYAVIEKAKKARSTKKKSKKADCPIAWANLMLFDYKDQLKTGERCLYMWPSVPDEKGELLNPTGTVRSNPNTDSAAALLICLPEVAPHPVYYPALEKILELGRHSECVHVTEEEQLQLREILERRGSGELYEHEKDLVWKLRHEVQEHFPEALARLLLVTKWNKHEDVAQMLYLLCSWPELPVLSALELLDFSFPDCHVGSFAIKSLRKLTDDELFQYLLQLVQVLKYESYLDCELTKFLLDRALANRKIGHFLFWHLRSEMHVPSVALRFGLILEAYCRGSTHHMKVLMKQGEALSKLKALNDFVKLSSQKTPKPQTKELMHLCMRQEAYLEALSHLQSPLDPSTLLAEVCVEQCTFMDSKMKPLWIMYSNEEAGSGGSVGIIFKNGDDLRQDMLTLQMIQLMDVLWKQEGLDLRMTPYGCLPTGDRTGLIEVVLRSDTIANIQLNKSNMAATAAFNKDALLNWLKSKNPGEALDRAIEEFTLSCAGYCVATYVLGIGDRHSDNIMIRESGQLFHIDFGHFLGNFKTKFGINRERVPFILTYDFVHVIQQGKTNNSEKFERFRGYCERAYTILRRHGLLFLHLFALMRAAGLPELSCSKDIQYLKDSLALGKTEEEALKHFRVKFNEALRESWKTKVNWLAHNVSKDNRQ
T1 sequence (P27986 whole entry partner): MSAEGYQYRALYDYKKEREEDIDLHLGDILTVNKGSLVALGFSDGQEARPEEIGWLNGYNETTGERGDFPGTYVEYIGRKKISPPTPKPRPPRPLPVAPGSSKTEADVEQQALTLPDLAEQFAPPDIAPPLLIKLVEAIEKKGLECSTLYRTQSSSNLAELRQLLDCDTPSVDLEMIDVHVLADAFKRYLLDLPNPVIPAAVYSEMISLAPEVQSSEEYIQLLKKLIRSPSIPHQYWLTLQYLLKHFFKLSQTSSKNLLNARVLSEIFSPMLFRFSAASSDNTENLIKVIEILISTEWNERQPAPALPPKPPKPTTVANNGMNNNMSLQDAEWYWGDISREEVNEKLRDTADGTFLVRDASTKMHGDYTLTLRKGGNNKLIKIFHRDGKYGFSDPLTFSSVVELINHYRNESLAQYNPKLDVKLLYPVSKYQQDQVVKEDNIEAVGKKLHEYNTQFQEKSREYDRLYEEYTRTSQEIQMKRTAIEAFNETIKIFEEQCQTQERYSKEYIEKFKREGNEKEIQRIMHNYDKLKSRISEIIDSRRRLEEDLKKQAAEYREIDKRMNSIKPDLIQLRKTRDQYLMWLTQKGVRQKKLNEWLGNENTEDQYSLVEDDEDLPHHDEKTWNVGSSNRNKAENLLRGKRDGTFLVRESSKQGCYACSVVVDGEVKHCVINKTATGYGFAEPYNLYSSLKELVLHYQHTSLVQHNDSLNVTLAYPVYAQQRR
How it was run: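 Inhibition of human PI3Kδ was assessed with the Millipore PI 3-Kinase (human) HTRF Assay kit. PI3Kδ was screened at 2 ng/well, diluted in 2×PIP2 operating fluid. Reactions were 20 μL and contained 100 μM ATP. Stop solution was Stop A and Stop B mixed 3:1. Detection solution was DM C, DM A and DM B mixed 18:1:1. Compounds were prepared from DMSO stocks, and percent inhibition was reported.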

PI3K α = target: T2, PI3K α (Homo sapiens, UniProt P42336); experiment: Inhibitory activity to PI3K α, PI 3-Kinase (human) HTRF Assay kit; format: biochemical; details: read-out: % Inhibition Rate to PI3K α
T2 construct: purchased Millipore 14-602
T2 sequence (P42336 whole entry): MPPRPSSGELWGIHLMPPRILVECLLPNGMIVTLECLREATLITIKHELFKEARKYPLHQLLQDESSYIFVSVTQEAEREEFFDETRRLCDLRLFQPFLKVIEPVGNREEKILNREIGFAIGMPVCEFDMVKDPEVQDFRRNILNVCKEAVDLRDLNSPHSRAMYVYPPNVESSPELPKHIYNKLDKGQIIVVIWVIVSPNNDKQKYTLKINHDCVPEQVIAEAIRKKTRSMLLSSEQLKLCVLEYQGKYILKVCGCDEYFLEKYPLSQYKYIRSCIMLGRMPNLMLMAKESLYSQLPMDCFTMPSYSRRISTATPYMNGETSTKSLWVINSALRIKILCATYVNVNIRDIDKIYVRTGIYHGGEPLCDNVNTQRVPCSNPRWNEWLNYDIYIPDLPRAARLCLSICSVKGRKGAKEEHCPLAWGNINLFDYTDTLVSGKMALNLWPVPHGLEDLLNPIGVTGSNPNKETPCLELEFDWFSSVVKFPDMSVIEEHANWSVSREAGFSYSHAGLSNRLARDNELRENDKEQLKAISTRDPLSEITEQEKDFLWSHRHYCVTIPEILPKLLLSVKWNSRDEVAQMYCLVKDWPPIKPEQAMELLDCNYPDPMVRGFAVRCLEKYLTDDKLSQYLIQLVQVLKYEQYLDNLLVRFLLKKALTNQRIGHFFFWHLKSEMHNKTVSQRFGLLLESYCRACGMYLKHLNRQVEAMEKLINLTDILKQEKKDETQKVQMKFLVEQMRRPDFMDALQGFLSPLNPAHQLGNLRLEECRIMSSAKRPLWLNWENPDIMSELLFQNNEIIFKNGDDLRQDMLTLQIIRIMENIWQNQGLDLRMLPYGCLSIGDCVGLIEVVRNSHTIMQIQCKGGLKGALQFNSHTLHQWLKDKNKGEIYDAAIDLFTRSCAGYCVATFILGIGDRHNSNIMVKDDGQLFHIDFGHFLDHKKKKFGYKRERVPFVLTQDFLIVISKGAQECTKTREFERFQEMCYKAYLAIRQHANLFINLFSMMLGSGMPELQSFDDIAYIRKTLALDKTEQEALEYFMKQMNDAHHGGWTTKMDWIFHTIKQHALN
T2 sequence (P27986 whole entry partner): as the sequence (P27986 whole entry partner) above
Excerpt: Study on the inhibitory activity of the compounds of present invention to PI 3κα, PI3κδ and PI3κγ. Two or three concentrations of the compounds are selected to preliminary screening to calculate respectively the activity inhibition rate of the compounds of corresponding concentrations to enzyme, then the compounds with better activity are selected by preliminary screening for IC50 test.
PI 3-Kinase (human) HTRF™ Assay kit (Cat.33-017, Millipore)
PI 3k α (Cat.14-602, Millipore)
4× Reaction Buffer (Cat.33-002, Millipore) is diluted with ddH2O to 1.33×, and 1M DTT is added to make the final concentration as 6.67 mM. For example, 10 μL DTT is added into 500 μL 4× Reaction Buffer, and water is added to 1.5 mL.
The Test compounds are dissolved with DMSO to 1 mM as storage liquid. 2 μL of each of storage liquid is added into 48 μL ddH2O, to obtain the 40 μM compounds solution containing 4% DMSO. After mixing, 3 μL of each of the solution is added into 27 μL 4% DMSO (in ddH2O) to obtain the 4 μM compounds solution. 5 μL of each dilute solution is added into 384-well plates, then the final concentration of the compounds in the 20 μL final kinase reaction system is 10 μM and 1 μM respectively contained 1% DMSO. The dilution methods of compounds are similar to the preliminary screening in IC50 test.
2×PIP2 working fluid is prepared with 1.33× reaction buffer to the final concentration of 20 μM.
The screening concentration of PI 3k α kinase: 8 ng/well,
Kinase is diluted with 2×PIP2 operating fluid, the concentration of kinase operating fluid is 2 times of screening concentration.
10 mM ATP is diluted with 1.33× reaction buffer to 400 μM. The concentration of ATP is 100 μM in 20 μL kinase reaction system.
Stop A and Stop B are mixed according to the proportion of 3:1, and are placed for 2 hours at room temperature to obtain the stop solution available.
DM C, DM A and DM B are mixed according to the proportion of 18:1:1, and are placed for 2 hours at room temperature to obtain the detection solution available.

PI3 K γ = target: T3, PI3 K γ (Homo sapiens, UniProt P48736); experiment: Inhibitory activity to PI3K γ, PI 3-Kinase (human) HTRF Assay kit; format: biochemical; details: read-out: Inhibition rate % to PI3 K γ
T3 construct: purchased Biology, Medicilon
T3 sequence (P48736 whole entry): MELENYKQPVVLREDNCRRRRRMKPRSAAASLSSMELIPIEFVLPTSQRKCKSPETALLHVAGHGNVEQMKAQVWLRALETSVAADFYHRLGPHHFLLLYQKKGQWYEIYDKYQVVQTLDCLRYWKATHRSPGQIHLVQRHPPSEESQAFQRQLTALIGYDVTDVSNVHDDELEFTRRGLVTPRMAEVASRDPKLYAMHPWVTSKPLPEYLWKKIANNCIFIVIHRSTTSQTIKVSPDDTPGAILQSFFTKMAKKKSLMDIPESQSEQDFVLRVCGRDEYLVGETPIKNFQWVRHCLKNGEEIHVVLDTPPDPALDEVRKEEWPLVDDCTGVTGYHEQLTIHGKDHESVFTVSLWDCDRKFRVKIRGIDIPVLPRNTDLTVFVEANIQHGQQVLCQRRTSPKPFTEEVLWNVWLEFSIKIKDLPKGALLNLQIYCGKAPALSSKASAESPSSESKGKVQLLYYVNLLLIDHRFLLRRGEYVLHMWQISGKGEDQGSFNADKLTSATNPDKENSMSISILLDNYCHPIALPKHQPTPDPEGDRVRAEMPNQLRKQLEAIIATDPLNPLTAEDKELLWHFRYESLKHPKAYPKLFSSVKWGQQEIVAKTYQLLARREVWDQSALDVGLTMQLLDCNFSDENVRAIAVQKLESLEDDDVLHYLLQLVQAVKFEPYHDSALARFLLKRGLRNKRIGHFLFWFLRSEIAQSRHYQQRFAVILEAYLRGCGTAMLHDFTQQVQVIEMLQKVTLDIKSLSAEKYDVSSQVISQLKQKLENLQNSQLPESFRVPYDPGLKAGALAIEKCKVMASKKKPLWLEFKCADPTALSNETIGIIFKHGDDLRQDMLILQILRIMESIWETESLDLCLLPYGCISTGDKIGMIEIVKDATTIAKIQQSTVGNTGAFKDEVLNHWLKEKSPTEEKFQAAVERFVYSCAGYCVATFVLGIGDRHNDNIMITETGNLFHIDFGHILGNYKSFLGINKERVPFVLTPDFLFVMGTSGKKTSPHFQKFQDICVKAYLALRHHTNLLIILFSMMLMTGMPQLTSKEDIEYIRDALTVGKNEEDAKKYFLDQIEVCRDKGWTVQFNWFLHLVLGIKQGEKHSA
How it was run: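 HTRF kinase assay with PI3Kγ at 80 ng/well, 10 μM PIP2 and 100 μM ATP (both final) in DTT-containing reaction buffer, 1% DMSO. Preliminary screen at 10 μM and 1 μM compound, followed by IC50 determination for selected compounds.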

PDGFR β enzyme = target: T4, PDGFR β enzyme (Homo sapiens, UniProt P09619); experiment: Inhibitory activity to PDGFR β enzyme, HTRF kinEASE TK kit; format: biochemical; details: read-out: Inhibition rate % (PDGFR β)
T4 construct: purchased Invitrogen P3082
T4 sequence (P09619 33-1106): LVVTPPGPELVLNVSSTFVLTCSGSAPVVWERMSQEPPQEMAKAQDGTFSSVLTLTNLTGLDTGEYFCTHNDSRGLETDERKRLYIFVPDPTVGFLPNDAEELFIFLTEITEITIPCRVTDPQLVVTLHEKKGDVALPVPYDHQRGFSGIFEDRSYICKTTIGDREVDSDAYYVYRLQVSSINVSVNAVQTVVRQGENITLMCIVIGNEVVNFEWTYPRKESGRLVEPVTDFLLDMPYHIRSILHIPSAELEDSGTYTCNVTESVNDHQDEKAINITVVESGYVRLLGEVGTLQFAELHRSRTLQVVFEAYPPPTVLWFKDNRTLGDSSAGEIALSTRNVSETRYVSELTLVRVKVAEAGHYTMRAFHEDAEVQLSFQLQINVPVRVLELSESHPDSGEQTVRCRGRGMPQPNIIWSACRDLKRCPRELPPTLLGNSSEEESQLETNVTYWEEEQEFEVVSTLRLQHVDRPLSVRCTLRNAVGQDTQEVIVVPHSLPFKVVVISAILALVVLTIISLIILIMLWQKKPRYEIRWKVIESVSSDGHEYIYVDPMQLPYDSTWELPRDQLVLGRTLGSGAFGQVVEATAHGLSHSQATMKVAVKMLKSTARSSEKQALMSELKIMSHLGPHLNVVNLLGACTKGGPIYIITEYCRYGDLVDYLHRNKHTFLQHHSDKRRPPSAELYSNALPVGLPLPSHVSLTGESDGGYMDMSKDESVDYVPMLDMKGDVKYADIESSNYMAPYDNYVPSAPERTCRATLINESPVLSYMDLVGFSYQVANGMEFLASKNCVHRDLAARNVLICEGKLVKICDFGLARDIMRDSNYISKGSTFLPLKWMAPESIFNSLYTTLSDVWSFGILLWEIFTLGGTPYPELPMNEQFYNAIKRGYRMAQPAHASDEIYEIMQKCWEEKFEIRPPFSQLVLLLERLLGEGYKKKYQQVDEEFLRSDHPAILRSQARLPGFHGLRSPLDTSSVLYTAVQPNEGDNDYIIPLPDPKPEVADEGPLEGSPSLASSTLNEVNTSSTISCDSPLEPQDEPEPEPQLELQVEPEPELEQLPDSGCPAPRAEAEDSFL
How it was run: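 Recombinant human PDGFRβ phosphorylating TK-substrate in kinase buffer containing MgCl2, MnCl2, DTT and SEB, with ATP. Phosphorylation detected by HTRF using TK-Ab-Cryptate and Sa-XL665.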

[5] = 0.4 μM (Table 8), read-out: Inhibition rate % to PI3K delta
[6] = 2 μM (Table 8), read-out: Inhibition rate % to PI3K delta
[7] = 10 μM (Table 8), read-out: Inhibition rate % to PI3K delta
[8] = 1 μM (Table 7), read-out: Inhibition rate % to PI3Kδ
[9] = 10 μM (Table 7), read-out: Inhibition rate % to PI3Kδ

SMILES | IC50 ([1]; Homo sapiens, PC-3, PC-3 cells) [nM] | IC50 [2] [nM] | IC50 ([3]; Homo sapiens, BT-474, 72 h) [nM] | IC50 ([4]; Homo sapiens, PC-3, 72 h) [nM] | inhibition at 1 µM (PI3K α) [%] | inhibition at 10 µM (PI3K α) [%] | inhibition at 1 µM (PI3Kδ; [8]) [%] | inhibition at 10 µM (PI3Kδ; [9]) [%] | further results
c1cc(C2CC2)c2cc(Nc3nc(NC4CC4)c4nc[nH]c4n3)ccc2n1 [MED1007-115, N6-cyclopropyl-N2-(4-cyclopropylquinoline-6-yl)-9H-purine-2,6-diamine dihydrate di-methanesulfonate] | 260 | 7360 | 1950 | 1570 | – | – | – | – | inhibition at 0.4 µM (PI3Kδ; [5]): 36.8%; inhibition at 2 µM (PI3Kδ; [6]): 60.2%; inhibition at 10 µM (PI3Kδ; [7]): 94.6%
CC(C)Nc1nc(Nc2ccc3nccc(-c4ccccc4)c3c2)nc2[nH]cnc12 [MED1007-101, N6-isopropyl-N2-(4-phenylquinoline-6-yl)-9H-purine-2,6-diamine] | 67 | 8600 | 441 | 616 | 49.5 | 126 | 75.7 | 95.6 | –
CC(C)Oc1nc(Nc2ccc3nccc(-c4ccccc4)c3c2)nc2[nH]cnc12 [MED1007-51, N-(6-isopropoxy-9H-purine-2-yl)-4-(phenyl-1-yl) quinoline-6-amine] | – | – | – | – | – | – | 39.6 | 75.5 | IC50 ([1]; PC-3 cells): 1.14 nM and 0.683 nM; inhibition at 1 µM (PI3 K γ): 1.16%; inhibition at 10 µM (PI3 K γ): 56.2%; inhibition at 1 µM (PDGFR β enzyme): 11.9%; inhibition at 10 µM (PDGFR β enzyme): 33.6%; IC50 ([3]; 72 hours): 81.4 nM and 114 nM
CCC(CC)Oc1nc(Nc2ccc3nccc(-c4ccccc4)c3c2)nc2[nH]cnc12 [MED1007-105, N-(6-(pentyl-3-yloxyl)-9H-purine-2-yl)-4-phenyl quinoline-6-amine] | – | 41000 | 420 | 1020 | 60.4 | 111 | 74.2 | 105 | –
c1ccc(-c2ccnc3ccc(Nc4nc(N5CCOCC5)c5nc[nH]c5n4)cc23)cc1 [MED1007-109S, N-(6-morpholine-9H-purine-2-yl)-4-phenyl quinoline-6-amine dihydrate di-methanesulfonate] | 116 | 18300 | 612 | 696 | – | – | – | – | Inhibition rate % to PI3K delta (PI3Kδ; 0.4 μM (Table 8), 0.4 µM): 30.22%; Inhibition rate % to PI3K delta (PI3Kδ; 2 μM (Table 8), 2 µM): 57.34%; Inhibition rate % to PI3K delta (PI3Kδ; 10 μM (Table 8), 10 µM): 94.36%
c1cnc2ccc(Nc3nc(NC4CC4)c4nc[nH]c4n3)cc2c1 [XC-302, reference compound] | – | 17800 | 5870 | 15000 | – | – | – | – | inhibition at 1 µM (PI3 K γ): 18.3%; inhibition at 10 µM (PI3 K γ): 49.3%; inhibition at 1 µM (PDGFR β enzyme; 1 μM): 51.1%; inhibition at 10 µM (PDGFR β enzyme; 10 μM): 96.5%
CC(C)Oc1nc(Nc2ccc3nccc(-c4ccccc4)c3c2)nc2[nH]cnc12 [MED1007-108, N-(6-isopropoxy-9H-purine-2-yl)-4-(phenyl-1-yl) quinoline-6-amine-methanesulfonate] | 3.83 | – | 63 | 71.6 | – | – | – | – | IC50 ([1]; PC-3 cells): 6.51 nM; IC50 ([3]; 72 hours): 35 nM; IC50 ([4]; 72 hours): 113 nM; inhibition at 0.4 µM (PI3Kδ; [5]): 40.5%; inhibition at 2 µM (PI3Kδ; [6]): 78.6%; inhibition at 10 µM (PI3Kδ; [7]): 89%
CC(C)Oc1nc(Nc2ccc3ncccc3c2)nc2[nH]cnc12 [MED1007-104, N-(6-isopropoxy-9H-purine-2-yl) quinoline-6-amine] | – | 18100 | 1360 | 1700 | 60.3 | 106 | – | – | Inhibition rate % to PI3Kδ (PI3Kδ; 1 μM (Table 7), 1 µM): 57.14%; Inhibition rate % to PI3Kδ (PI3Kδ; 10 μM (Table 7), 10 µM): 85.86%
